Measured values from patent US10696693B2, “Fused imidazole derivatives as TGF-beta inhibitors” (Rigel Pharmaceuticals, Inc., priority 2014, dated 2020).
Read-outs that look alike come from different tables or passages of the source.

Legend:
GDF8 = test: AlphaScreen SureFire p-SMAD3 (Ser423/425) assay, GDF8-stimulated cells; format: cell-based; conditions: Mus musculus
Source text: (§1) The p-SMAD-3 (Ser423/425) SureFire® assay has been designed to measure the phosphorylation of endogenous cellular p-SMAD-3 (Ser423/425) in cell lysates and is a system for the screening of both modulators of receptor activation (e.g. agonists and antagonists) as well as agents acting intracellularly, such as small molecule inhibitors of upstream events. The assay will measure p-SMAD-3 (Ser423/425) activation by either cloned or endogenous receptors, and can be applied to primary cells.
(§2) 96-well Assay Protocol for 293FT and RMS13 adherent cells can be carried out manually or in high throughput with liquid handling robots.
(§3) The cells (80 μL of cells for 96 well plates) were plated in collagen coated tissue culture plates in RPMI or FreeStyle medium (Invitrogen) and incubated overnight. For manual analysis, 6 plates for GDF8, 6 plates for TGFβ, and optionally 6 plates for Alk5ca(ALK5 constitutively active) were used.
(§4) The compound dilution plates were prepared as follows: 12 μL of DMSO was transferred into first column of 96-well plate, and 16 μL of DMSO was transferred into columns 2-12 of the 96-well plate. 12 μL of compound solution was transferred into first column of the DMSO-containing 96-well plate. Three-fold dilution was performed up to column 10 of the DMSO-containing 96-well plate.
(§5) The plate containing cells were treated with compounds for about 10 minutes, and then ligand was added. GDF8 or TGFb was added to plates to stimulate. 293FL cells were stimulatedfor 90 minutes at 37° C.; and RMS13 cells were stimulated for 60 minutes at 37° C. The medium was then removed from the cells, and 1× Lysis Buffer (about 25 μL) was added and the plate was gently agitated on plate shaker for 5-10 minutes.
(§6) The lysate (5 μL) was then placed into 384-well shallow plates avoiding the generation of bubbles. To this, the Reaction Buffer+Activation Buffer+AlphaScreen® Acceptor beadsmixture (5 μL) was added. The plate was sealed with adhesive cover and shielded from light (e.g., with metal foil), and agitated gently on plate shaker for 2 hours at room temperature.
(§7) Dilution buffer+AlphaScreen® Donor beads (2 μL) was then added, and the plate was intubated on the plate shaker for an additional 1½ hours. After completion, the plate was read on Synergy-4 or Enspire plate reader, using AlphaScreen® pSMAD3® settings.
(§8) Representative results for inhibition of GDF8 (data=GDF pSMAD (MPC11) (μM)) and TGF-β (data=TGF-β pSMAD (MPC-11) (μM)) signaling are shown in Table 1(A=<0.05 μM, B=0.05−<0.1 μM, C=0.1−<1.0 μM, D=>1.0 μM): […]

TGF-β = test: AlphaScreen SureFire p-SMAD3 (Ser423/425) assay, TGF-β-stimulated cells; format: cell-based; conditions: Mus musculus
Source text: as §1, §2, §3, §4, §5, §6, §7, §8

[1] = MPC-11, read-out: GDF8: inhibition of GDF8 signaling, GDF pSMAD (MPC11), p-SMAD3 (Ser423/425) AlphaScreen in cell lysate, GDF8 stimulation
[2] = MPC-11, read-out: TGF-β: inhibition of TGF-β signaling, TGF-β pSMAD (MPC-11), p-SMAD3 (Ser423/425) AlphaScreen in cell lysate, TGF-β stimulation
[3] = MPC-11, p-SMAD3 (Ser423/425) AlphaScreen in cell lysate, MPC11, GDF8 stimulation, read-out: GDF8: inhibition of GDF8 signaling, GDF pSMAD (MPC11)
[4] = p-SMAD3 (Ser423/425) AlphaScreen in cell lysate, MPC-11, TGF-β stimulation, read-out: TGF-β: inhibition of TGF-β signaling, TGF-β pSMAD (MPC-11)

Row | Compound | IC50 (GDF8; [1]) [nM] | IC50 (TGF-β; [2]) [nM] | IC50 (GDF8; [3]) [nM] | IC50 (TGF-β; [4]) [nM]
1 | COCCOc1cnc2ccc(-c3c(-c4ccc(F)c(Cl)c4)nc4n3CCC4)cc2n1 [Compound 355, 7-(2-(3-chloro-4-fluorophenyl)-6,7-dihydro-5H-pyrrolo[1,2-a]imidazol-3-yl)-2-(2-methoxyethoxy)quinoxaline] | 100 to 1000 | 100 to 1000 |  | 
2 | Cc1cccc(-c2nc3n(c2-c2ccc4ncsc4c2)CCC3)c1 [Compound 170, 6-(2-(m-tolyl)-6,7-dihydro-5H-pyrrolo[1,2-a]imidazol-3-yl)benzo[d]thiazole] |  |  | < 50 | 50 to 100
3 | Cc1ccc(F)c(-c2nc3n(c2-c2ccc4ncnn4c2)CCC3)c1 [Compound 96, 6-(2-(2-fluoro-5-methylphenyl)-6,7-dihydro-5H-pyrrolo[1,2-a]imidazol-3-yl)-[1,2,4]triazolo[1,5-a]pyridine] |  |  | < 50 | < 50
4 | Fc1ccc(-c2nc3occn3c2I)cc1F [Compound 132, 6-(3,4-difluorophenyl)-5-iodoimidazo[2,1-b]oxazole] |  |  | > 1000 | > 1000
5 | Fc1cc(F)cc(-c2nc3n(c2-c2ccc4cn[nH]c4c2)CCC3)c1 [Compound 231, 6-(2-(3,5-difluorophenyl)-6,7-dihydro-5H-pyrrolo[1,2-a]imidazol-3-yl)-1H-indazole] | 100 to 1000 | > 1000 |  | 
6 | CC(C)c1nnc2ccc(-c3c(-c4cc(F)cc(F)c4F)nc4n3CCC4)cn12 [Compound 22, 3-isopropyl-6-(2-(2,3,5-trifluorophenyl)-6,7-dihydro-5H-pyrrolo[1,2-a]imidazol-3-yl)-[1,2,4]triazolo[4,3-a]pyridine] |  |  | > 1000 | > 1000
7 | Clc1cccc(-c2nc3n(c2-c2ccc4nccn4c2)CCC3)c1 [Compound 6, 6-(2-(3-chlorophenyl)-6,7-dihydro-5H-pyrrolo[1,2-a]imidazol-3-yl)imidazo[1,2-a]pyridine] |  |  | 100 to 1000 | 100 to 1000
8 | Cc1ccc(F)cc1-c1nc2n(c1-c1ccc3ncnn3c1)CCC2 [Compound 58, 6-(2-(5-fluoro-2-methylphenyl)-6,7-dihydro-5H-pyrrolo[1,2-a]imidazol-3-yl)-[1,2,4]triazolo[1,5-a]pyridine] |  |  | > 1000 | > 1000
9 | Fc1ccc(-c2nc3n(c2-c2ccc4nccn4c2)CCC3)c(F)c1 [Compound 9] |  |  | < 50 | 100 to 1000
10 | Fc1ccccc1-c1nc2n(c1-c1ccc3[nH]ncc3c1)CCC2 [Compound 197, 5-(2-(2-fluorophenyl)-6,7-dihydro-5H-pyrrolo[1,2-a]imidazol-3-yl)-1H-indazole] |  |  | 100 to 1000 | > 1000
11 | Fc1cc(Cl)c(-c2nc3n(c2-c2ccc4[nH]ncc4c2)CCC3)cc1F [Compound 288, 5-(2-(2-chloro-4,5-difluorophenyl)-6,7-dihydro-5H-pyrrolo[1,2-a]imidazol-3-yl)-1H-indazole] | 100 to 1000 | > 1000 |  | 
12 | Cc1cc(-c2nc3n(c2-c2ccc4ncccc4c2)CCC3)cc(Cl)c1F [Compound 275, 6-(2-(3-chloro-4-fluoro-5-methylpheny)-6,7-dihydro-5H-pyrrolo[1,2-a]imidazol-3-yl)quinoline] |  |  | > 1000 | > 1000
13 | CCOC(=O)C1CCC2(CC1)Cc1nc(-c3ccc(F)cc3)c(-c3ccc4ncnn4c3)n1C2 (centres unmarked) [Compound 77, ethyl 3′-([1,2,4]triazolo[1,5-a]pyridin-6-yl)-2′-(4-fluorophenyl)-5′H,7′H-spiro[cyclohexane-1,6′-pyrrolo[1,2-a]imidazole]-4-carboxylate] | > 1000 | > 1000 |  | 
14 | Cc1c(F)ccc(-c2nc3n(c2-c2ccc4nccn4c2)CCC3)c1C [Compound 74, 6-(2-(4-fluoro-2,3-dimethylphenyl)-6,7-dihydro-5H-pyrrolo[1,2-a]imidazol-3-yl)imidazo[1,2-a]pyridine] |  |  | 100 to 1000 | > 1000
15 | NC(=O)c1cnc2ccc(-c3c(-c4ccc(F)c(Cl)c4)nc4n3CCC4)cn12 [Compound 51, 6-(2-(3-chloro-4-fluorophenyl)-6,7-dihydro-5H-pyrrolo[1,2-c]imidazol-3-yl)imidazo[1,2-c]pyridine-3-carboxamide] |  |  | < 50 | 50 to 100
16 | Fc1ccc(-c2nc3occn3c2-c2ccc3nccn3c2)cc1 [Compound 129, 6-(4-fluorophenyl)-5-(imidazo[1,2-a]pyridin-6-yl)imidazo[2,1-b]oxazole] |  |  | < 50 | 50 to 100
17 | Cc1cc(F)ccc1-c1nc2n(c1-c1ccc3ncccc3c1)CCC2 [Compound 295, 6-(2-(4-fluoro-2-methylphenyl)-6,7-dihydro-5H-pyrrolo[1,2-a]imidazol-3-yl)quinoline] |  |  | > 1000 | > 1000
18 | Fc1cc(F)c(-c2nc3n(c2-c2ccc4nccnc4c2)CCC3)cc1F [Compound 219, 6-(2-(2,4,5-trifluorophenyl)-6,7-dihydro-5H-pyrrolo[1,2-a]imidazol-3-yl)quinoxaline] |  |  | < 50 | 100 to 1000
19 | Fc1ccc(-c2nc3n(c2-c2ccc4ncsc4c2)CCC3)cc1Cl [Compound 265, 6-(2-(3-chloro-4-fluoropheny)-6,7-dihydro-5H-pyrrolo[1,2-a]imidazol-3-yl)benzo[d]thiazole] |  |  | 50 to 100 | 100 to 1000
20 | Cc1cccc(-c2nc3n(c2-c2ccc4nccnc4c2)CCC3)c1 [Compound 180, 6-(2-(m-tolyl)-6,7-dihydro-5H-pyrrolo[1,2-a]imidazol-3-yl)quinoxaline] |  |  | < 50 | 100 to 1000
21 | FC(F)(F)c1cccc(-c2nc3n(c2-c2ccc4cn[nH]c4c2)CCC3)c1 [Compound 182, 6-(2-(3-(trifluoromethyl)phenyl)-6,7-dihydro-5H-pyrrolo[1,2-a]imidazol-3-yl)-1H-indazole] |  |  | 50 to 100 | 100 to 1000
22 | Cc1c(F)ccc(-c2nc3n(c2-c2ccc4nccn4c2)CCC3)c1Cl [Compound 67, 6-(2-(2-chloro-4-fluoro-3-methylphenyl)-6,7-dihydro-5H-pyrrolo[1,2-a]imidazol-3-yl)imidazo[1,2-a]pyridine] |  |  | 100 to 1000 | > 1000
23 | Cc1cc(-c2nc3n(c2-c2ccc4nccnc4c2)CCC3)cc(Cl)c1F [Compound 274, 6-(2-(3-chloro-4-fluoro-5-methylpheny)-6,7-dihydro-5H-pyrrolo[1,2-a]imidazol-3-yl)quinoxaline] |  |  | > 1000 | > 1000
24 | Fc1cc(-c2nc3n(c2-c2ccc4[nH]ncc4c2)CCC3)cc(F)c1F [Compound 228, 5-(2-(3,4,5-trifluorophenyl)-6,7-dihydro-5H-pyrrolo[1,2-a]imidazol-3-yl)-1H-indazole] | 100 to 1000 | 100 to 1000 |  | 
25 | CN(C)CCOc1cnc2ccc(-c3c(-c4cc(F)c(F)cc4F)nc4n3CCC4)cc2n1 [Compound 362, N,N-dimethyl-2-((7-(2-(2,4,5-trifluorophenyl)-6,7-dihydro-5H-pyrrolo[1,2-a]imidazol-3-yl)quinoxalin-2-yl)oxy)ethan-1-amine] | 100 to 1000 | 100 to 1000 |  | 
26 | Cc1cc(F)c(Cl)cc1-c1nc2n(c1-c1ccc3[nH]ncc3c1)CCC2 [Compound 296, 5-(2-(5-chloro-4-fluoro-2-methylphenyl)-6,7-dihydro-5H-pyrrolo[1,2-a]imidaol-3-yl)-1H-indazole] |  |  | 100 to 1000 | > 1000
27 | Cc1cccc(-c2nc3n(c2-c2ccc4ncsc4c2)CCC3)n1 [Compound 364, 6-(2-(6-methylpyridin-2-yl)-6,7-dihydro-5H-pyrrolo[1,2-a]imidazol-3-yl)benzo[d]thiazole] |  | < 50 |  | 
